Source: US12442042B2, “Epigenomic profiling reveals the somatic promoter landscape of primary gastric adenocarcinoma” (AGENCY FOR SCIENCE, TECHNOLOGY AND RESEARCH, priority 2016, dated 2025)

Tested on: PBMCs
Assay: EpiMAX assay: cytokine multiplex on supernatants of PBMCs stimulated with peptide pools
Assay type: cell-based, human
Method: A set of peptides for 15 representative alternative promoters was purchased from GenScript (GenScript). Peptide sequences and composition of peptide pools for each alternative promoter are described in Table 3. Control peptide pools for human Actin were purchased from JPT (PM-ACTS, PepMix™ Human (Actin) JPT). Peripheral blood mononuclear cells (PBMCs) were obtained from 9 healthy volunteers of whom 8 PBMC samples were HLA-typed (Table 3).
PBMCs were labelled with 1 μM CFSE (Life Technologies, Thermo Fisher Scientific) and cultured at a density of 200,000 cells per well in complete culture medium (cRPMI comprising RPMI 1640 medium (Gibco, Thermo Fisher Scientific), 15 mM HEPES (Gibco), 1% non-essential amino acid (Gibco), 1 mM sodium pyruvate (Gibco), 1% penicillin/streptomycin (Gibco), 2 mM L-glutamine (Gibco), 50 μM β2-mercaptoethanol (Sigma, Merck), and 10% heat-inactivated FCS (Hyclone)) for 5 days. Individual peptide pools of each alternative promoter were added at the start of the culture at a concentration of 1 μg/ml for each peptide. At the end of day 5, cells were stained with LIVE/DEAD® fixable near-IR dead cell stain kit (Life Technologies), and labelled with CD4-BUV737 (BD), CD8-PacificBlue (BD), CD3-PE (BioLegend), CD19-PE/TexasRed (Beckman), and CD56-APC (BD). Analysis of T cell proliferation by CFSE dilution was performed by flow cytometry using a LSRII (BD). In addition, magnetic bead-based cytokine multiplex analysis (human cytokine panel 1, Millipore, Merck) was performed on cell culture supernatants to measure secreted cytokine levels.

[1] = Donor 1 PBMCs stimulated with peptide pool
[2] = Donor 2 PBMCs stimulated with peptide pool
[3] = Donor 3 PBMCs stimulated with peptide pool
[4] = Donor 4 PBMCs stimulated with peptide pool
[5] = Donor 5 PBMCs stimulated with peptide pool
[6] = Donor 6 PBMCs stimulated with peptide pool
[7] = Donor 7 PBMCs stimulated with peptide pool
[8] = Donor 8 PBMCs stimulated with peptide pool
[9] = Donor 9 PBMCs stimulated with peptide pool

For Actin, the “Analyte concentration GM-CSF” value [1] was 19.57 pg/mL, the “Analyte concentration IFNg” value [1] was 147.18 pg/mL and the “Analyte concentration IL-2” value [1] was 34.21 pg/mL. The “Analyte concentration IL-3” value [1] was 1.46 pg/mL, the “Analyte concentration IL-4” value [1] was 0.03 pg/mL and the “Analyte concentration IL-7” value [1] was 0.085 pg/mL. For the same substance, the “Analyte concentration IL-9” value [1] was 1.22 pg/mL, the “Analyte concentration IL-10” value [1] was 10.1 pg/mL and the “Analyte concentration IL-13” value [1] was 14.2 pg/mL. For the same substance, the “Analyte concentration IL-15” value [1] was 0.925 pg/mL, the “Analyte concentration IL-17A” value [1] was 0.02 pg/mL and the “Analyte concentration TNFa” value [1] was 101.44 pg/mL. The “Analyte concentration sCD40L” value [1] was 0.78 pg/mL, the “Fold change of total cytokine response (normalized against Actin control)” value (“Fold change … (normalized against Actin control)” for short) [1] was 1.00 and the Total analytes [1] was 331.40 pg/mL. The “Analyte concentration GM-CSF” value [2] was 15.58 pg/mL, the “Analyte concentration IFNg” value [2] was 7.71 pg/mL and the “Analyte concentration IL-2” value [2] was 11.28 pg/mL. For the same substance, the “Analyte concentration IL-3” value [2] was 0.76 pg/mL, the “Analyte concentration IL-4” value [2] was 0.03 pg/mL and the “Analyte concentration IL-7” value [2] was 1.73 pg/mL. The “Analyte concentration IL-9” value [2] was 1.22 pg/mL, the “Analyte concentration IL-10” value [2] was 5.29 pg/mL and the “Analyte concentration IL-13” value [2] was 13.75 pg/mL. The “Analyte concentration IL-15” value [2] was 0.925 pg/mL, the “Analyte concentration IL-17A” value [2] was 0.02 pg/mL and the “Analyte concentration TNFa” value [2] was 9.18 pg/mL. For the same substance, the “Analyte concentration sCD40L” value [2] was 1.81 pg/mL, the “Fold change … (normalized against Actin control)” value [2] was 1.00 and the Total analytes [2] was 69.29 pg/mL. The “Analyte concentration GM-CSF” value [3] was 56.66 pg/mL, the “Analyte concentration IFNg” value [3] was 60.86 pg/mL and the “Analyte concentration IL-2” value [3] was 13.4 pg/mL. The “Analyte concentration IL-3” value [3] was 0.56 pg/mL, the “Analyte concentration IL-4” value [3] was 4.53 pg/mL and the “Analyte concentration IL-7” value [3] was 0.085 pg/mL. The “Analyte concentration IL-9” value [3] was 1.22 pg/mL, the “Analyte concentration IL-10” value [3] was 2.56 pg/mL and the “Analyte concentration IL-13” value [3] was 5.96 pg/mL. For the same substance, the “Analyte concentration IL-15” value [3] was 0.925 pg/mL, the “Analyte concentration IL-17A” value [3] was 2.89 pg/mL and the “Analyte concentration TNFa” value [3] was 20.69 pg/mL. For the same substance, the “Analyte concentration sCD40L” value [3] was 0.01 pg/mL, the “Fold change … (normalized against Actin control)” value [3] was 1.00 and the Total analytes [3] was 170.35 pg/mL. For the same substance, the “Analyte concentration GM-CSF” value [4] was 0.66 pg/mL, the “Analyte concentration IFNg” value [4] was 0.01 pg/mL and the “Analyte concentration IL-2” value [4] was 1.27 pg/mL. For the same substance, the “Analyte concentration IL-3” value [4] was 0.005 pg/mL, the “Analyte concentration IL-4” value [4] was 0.03 pg/mL and the “Analyte concentration IL-7” value [4] was 0.085 pg/mL. For the same substance, the “Analyte concentration IL-9” value [4] was 1.22 pg/mL, the “Analyte concentration IL-10” value [4] was 0.18 pg/mL and the “Analyte concentration IL-13” value [4] was 0.99 pg/mL. The “Analyte concentration IL-15” value [4] was 0.925 pg/mL, the “Analyte concentration IL-17A” value [4] was 0.02 pg/mL and the “Analyte concentration TNFa” value [4] was 1.49 pg/mL. For the same substance, the “Analyte concentration sCD40L” value [4] was 0.01 pg/mL, the “Fold change … (normalized against Actin control)” value [4] was 1.00 and the Total analytes [4] was 6.90 pg/mL. For the same substance, the “Analyte concentration GM-CSF” value [5] was 0.66 pg/mL, the “Analyte concentration IFNg” value [5] was 1.65 pg/mL and the “Analyte concentration IL-2” value [5] was 1.4 pg/mL. The “Analyte concentration IL-3” value [5] was 0.005 pg/mL, the “Analyte concentration IL-4” value [5] was 0.03 pg/mL and the “Analyte concentration IL-7” value [5] was 0.085 pg/mL. For the same substance, the “Analyte concentration IL-9” value [5] was 1.22 pg/mL, the “Analyte concentration IL-10” value [5] was 5.5 pg/mL and the “Analyte concentration IL-13” value [5] was 1.44 pg/mL. For the same substance, the “Analyte concentration IL-15” value [5] was 0.925 pg/mL, the “Analyte concentration IL-17A” value [5] was 0.02 pg/mL and the “Analyte concentration TNFa” value [5] was 3.08 pg/mL. The “Analyte concentration sCD40L” value [5] was 0.01 pg/mL, the “Fold change … (normalized against Actin control)” value [5] was 1.00 and the Total analytes [5] was 16.03 pg/mL. The “Analyte concentration GM-CSF” value [6] was 18.18 pg/mL, the “Analyte concentration IFNg” value [6] was 135.48 pg/mL and the “Analyte concentration IL-2” value [6] was 11.03 pg/mL. The “Analyte concentration IL-3” value [6] was 0.5 pg/mL, the “Analyte concentration IL-4” value [6] was 0.03 pg/mL and the “Analyte concentration IL-7” value [6] was 0.085 pg/mL. The “Analyte concentration IL-9” value [6] was 1.22 pg/mL, the “Analyte concentration IL-10” value [6] was 4.66 pg/mL and the “Analyte concentration IL-13” value [6] was 8.77 pg/mL. For the same substance, the “Analyte concentration IL-15” value [6] was 0.925 pg/mL, the “Analyte concentration IL-17A” value [6] was 2.22 pg/mL and the “Analyte concentration TNFa” value [6] was 38.39 pg/mL. The “Analyte concentration sCD40L” value [6] was 0.01 pg/mL, the “Fold change … (normalized against Actin control)” value [6] was 1.00 and the Total analytes [6] was 222.13 pg/mL. The “Analyte concentration GM-CSF” value [7] was 3.31 pg/mL, the “Analyte concentration IFNg” value [7] was 6.53 pg/mL and the “Analyte concentration IL-2” value [7] was 0.77 pg/mL. The “Analyte concentration IL-3” value [7] was 0.01 pg/mL, the “Analyte concentration IL-4” value [7] was 0.03 pg/mL and the “Analyte concentration IL-7” value [7] was 2.29 pg/mL. For the same substance, the “Analyte concentration IL-9” value [7] was 1.22 pg/mL, the “Analyte concentration IL-10” value [7] was 7.7 pg/mL and the “Analyte concentration IL-13” value [7] was 0.14 pg/mL. The “Analyte concentration IL-15” value [7] was 0.925 pg/mL, the “Analyte concentration IL-17A” value [7] was 0.02 pg/mL and the “Analyte concentration TNFa” value [7] was 48.35 pg/mL. The “Analyte concentration sCD40L” value [7] was 0.01 pg/mL, the “Fold change … (normalized against Actin control)” value [7] was 1.00 and the Total analytes [7] was 71.31 pg/mL. The “Analyte concentration GM-CSF” value [8] was 0.66 pg/mL, the “Analyte concentration IFNg” value [8] was 1.12 pg/mL and the “Analyte concentration IL-2” value [8] was 1.9 pg/mL. The “Analyte concentration IL-3” value [8] was 0.22 pg/mL, the “Analyte concentration IL-4” value [8] was 0.03 pg/mL and the “Analyte concentration IL-7” value [8] was 0.085 pg/mL. The “Analyte concentration IL-9” value [8] was 1.22 pg/mL, the “Analyte concentration IL-10” value [8] was 3.61 pg/mL and the “Analyte concentration IL-13” value [8] was 0.03 pg/mL. For the same substance, the “Analyte concentration IL-15” value [8] was 0.925 pg/mL, the “Analyte concentration IL-17A” value [8] was 0.02 pg/mL and the “Analyte concentration TNFa” value [8] was 2.64 pg/mL. For the same substance, the “Analyte concentration sCD40L” value [8] was 0.58 pg/mL, the “Fold change … (normalized against Actin control)” value [8] was 1.00 and the Total analytes [8] was 13.04 pg/mL. The “Analyte concentration GM-CSF” value [9] was 0.66 pg/mL, the “Analyte concentration IFNg” value [9] was 3.49 pg/mL and the “Analyte concentration IL-2” value [9] was 0.77 pg/mL. For the same substance, the “Analyte concentration IL-3” value [9] was 0.36 pg/mL, the “Analyte concentration IL-4” value [9] was 0.03 pg/mL and the “Analyte concentration IL-7” value [9] was 2.01 pg/mL. For the same substance, the “Analyte concentration IL-9” value [9] was 1.22 pg/mL, the “Analyte concentration IL-10” value [9] was 2.13 pg/mL and the “Analyte concentration IL-13” value [9] was 1.05 pg/mL. The “Analyte concentration IL-15” value [9] was 0.925 pg/mL, the “Analyte concentration IL-17A” value [9] was 0.58 pg/mL and the “Analyte concentration TNFa” value [9] was 56.18 pg/mL. The “Analyte concentration sCD40L” value [9] was 0.01 pg/mL, the “Fold change … (normalized against Actin control)” value [9] was 1.00 and the Total analytes [9] was 69.42 pg/mL.
